Common to all, as to assay: Cytotoxic activity, Alamar Blue assay
Type in all cases: cell-based
For orientation: Resazurin is reduced to fluorescent resorufin, in cell work by metabolically active cells.

Data set [1] concerns BT-474 (ErbB2-expressing) cells. To be noted: ADC3 study, read-out: Relative IC50 at 96 h (day 4). On the procedure:
(§1) Log phase cultures of cell lines SK-OV-3 (ErbB2-expressing), SK-BR-3 (ErbB2-expressing), BT-474 (ErbB2-expressing) and MDA-MB-231 (ErbB2 negative) were collected and cells plated at seeding densities ranging from 1,500 to 12,000 cells/well in 96-well microtiter plates according to pre-determined conditions.
Assessment of cellular growth was done using Alamar Blue (available from Thermo Fisher Scientific) dye reduction assay. Alamar Blue was added to cells to constitute 10% culture volume. Cells were incubated for 4 to 6 hours, and dye reduction was measured by fluorescence on an EnSpire plate reader (Perkin Elmer). Background corrected fluorescence measurements were transformed in % scale by considering vehicle value as 100% activity (relative measurements). Next, relative measurements were analyzed using GraphPad Prism software to derive relative IC50. All experiments were done twice with 3 replicates per concentration. Error bars: SEM (n=3). Cytotoxicity of AF and AF-Arg on ErbB2-expressing SK-OV-3 and SK-BR-3 cells after 72 and 120 h of treatment. SK-OV-3 and SK-BR-3 cells were seeded the day before treatment in complete culture medium. After overnight resting, cells were treated with decreasing concentrations of test compounds in complete culture medium (AF: 10 μM-1 pM; AF-Arg: 10 μM-1 pM, log-dilution). […]

Data set [2] has as its system MDA-MB-231 (ErbB2 negative) cells. To be noted: read-out: Relative IC50 at 96 h (day 4). On the procedure:
as §1
(§2) Assessment of cellular growth was done using Alamar Blue (available from Thermo Fisher Scientific) dye reduction assay. Alamar Blue was added to cells to constitute 10% culture volume. Cells were incubated for 4 to 6 hours, and dye reduction was measured by fluorescence on an EnSpire plate reader (Perkin Elmer). Background corrected fluorescence measurements were transformed in % scale by considering vehicle value as 100% activity (relative measurements). Next, relative measurements were analyzed using GraphPad Prism software to derive relative IC50. All experiments were done twice with 3 replicates per concentration. Error bars: SEM (n=3). Cytotoxicity of AF and AF-Arg on ErbB2-expressing SK-OV-3 and SK-BR-3 cells after 72 and 120 h of treatment. SK-OV-3 and SK-BR-3 cells were seeded the day before treatment in complete culture medium. After overnight resting, cells were treated with decreasing concentrations of test compounds in complete culture medium (AF: 10 μM-1 pM; AF-Arg: 10 μM-1 pM, log-dilution).
(§3) SK-OV-3, SK-BR-3 and MDA-MB-231 cells were seeded the day before treatment in complete culture medium.
BT-474 and MDA-MB-231 cells were seeded the day before treatment in complete culture medium.

Data set [3] relates to SK-OV-3 (ErbB2-expressing) cells. The following applies: ADC1 study, read-out: Relative IC50 at 96 h (day 4).
The test system is the same in data set [4]. On the procedure:
as §1, §2, §3

For data set [5], the system named is SK-BR-3 (ErbB2-expressing) cells. The protocol:
as §1, §2, §3

The test system is the same in data set [6]. The following applies: ADC1 study, read-out: Relative IC50 at 96 h (day 4).
Where [7] appears, read: SK-OV-3, run 1, 72 h, read-out: Relative IC50 at 72 h (day 3).
[8] abbreviates: SK-OV-3, run 1, 120 h, read-out: Relative IC50 at 120 h (day 5).
Setting [9] is: SK-OV-3, run 2, 72 h, read-out: Relative IC50 at 72 h (day 3).
Setting [10] is: SK-OV-3, run 2, 120 h, read-out: Relative IC50 at 120 h (day 5).
Where [11] appears, read: SK-BR-3, run 1, 72 h, read-out: Relative IC50 at 72 h (day 3).
[12] abbreviates: SK-BR-3, run 1, 120 h, read-out: Relative IC50 at 120 h (day 5).
The mark [13] stands for this setting: SK-BR-3, run 2, 72 h, read-out: Relative IC50 at 72 h (day 3).
[14] abbreviates: SK-BR-3, run 2, 120 h, read-out: Relative IC50 at 120 h (day 5).

“And” between values parts separate entries of the source, which are not always exact repeats. Identical values can stand only once. Like-named read-outs stand apart in the source and are kept apart here. Non-standard residues stand in square brackets, D forms with d. Residues, ends and D or L forms follow the SMILES beside them. *: point of attachment. Dolaproine = CO[C@@H]([C@@H]1CCCN1)[C@@H](C)C(=O)O; Dil = CC[C@H](C)[C@H](NC)[C@@H](CC(=O)O)OC; NMe2Val = CC(C)[C@@H](C(=O)*)N(C)C

By IC50 is commonly meant the midpoint of a concentration-inhibition curve.

As to `COc1cc2cc(c1Cl)N(C)C(=O)C[C@H](OC(=O)[C@H](C)N(C)C(=O)CCS)[C@]1(C)O[C@H]1[C@H](C)[C@@H]1C[C@@](O)(NC(=O)O1)[C@H](OC)/C=C/C=C(\C)C2` [DM1, N2′-deacetyl-N2′-(3-mercapto-1-oxopropyl)-maytansine, reference compound], the IC50 in data set [1] (BT-474, run 1, 96 h) was found to be 2.8 nM; in data set [1] (BT-474, run 2, 96 h), 3 nM; in data set [2] (MDA-MB-231, run 1, 96 h, ADC3 study) it was 44.2 nM; in data set [2] (MDA-MB-231, run 2, 96 h, ADC3 study) it was 57 nM.

As to AF-Arg, the IC50 amounted to 82.6 nM in data set [3] (SK-OV-3, run 1, 96 h); 244 nM in data set [3] (SK-OV-3, run 2, 96 h); 180 nM in data set [4] (setting [7]); 147 nM in data set [4] (setting [8]); 240 nM in data set [4] (setting [9]); 205 nM in data set [4] (setting [10]). The 50% inhibitory concentration (IC50) in data set [5] (setting [11]) was approximately 98 nM; in data set [5] (setting [12]), 20.9 nM; in data set [5] (setting [13]), approximately 111 nM; in data set [5] (setting [14]) it was 24.9 nM; in data set [2] (MDA-MB-231, run 1, 96 h, ADC1 study), 15.2 nM; in data set [2] (MDA-MB-231, run 2, 96 h, ADC1 study) it was 5.84 nM. Besides, the IC50 in data set [6] (SK-BR-3, run 1, 96 h) is approximately 92.1 nM; in data set [6] (SK-BR-3, run 2, 96 h) it was 128 nM. Moreover, the “retained cytotoxic activity relative to the native drug (AF)” value in data set [4] (SK-OV-3 cells, 120 h) was “about 70%”; in data set [5] (SK-BR-3 cells, 120 h), “greater than 85%”.

For the compound `CC[C@H](C)[C@@H]([C@@H](CC(=O)N1CCC[C@H]1[C@H](OC)[C@@H](C)C(=O)N[C@@H](Cc1ccccc1)C(=O)O)OC)N(C)C(=O)[C@@H](NC(=O)[C@H](C(C)C)N(C)C)C(C)C` [AF, Auristatin F, reference compound] (NMe2Val-V[Dil][Dolaproine]F-OH), the IC50 in data set [4] (setting [7]) is 82.8 nM; in data set [4] (setting [8]), 100 nM and ~100 nM; in data set [4] (setting [9]) it was 154 nM; in data set [4] (setting [10]), 145 nM; in data set [5] (setting [11]) it was 37.4 nM; in data set [5] (setting [12]), 18.8 nM. For the same compound, the IC50 in data set [5] (setting [13]) came to 53.7 nM; in data set [5] (setting [14]) it was 21.8 nM.

Source of the values: US20220062371A1, “LIGAND-DRUG-CONJUGATES AS SUBSTRATES FOR SELECTIVE CLEAVAGE BY THE EXOPEPTIDASE ACTIVITY OF CATHEPSIN B” (DEBIOPHARM RESEARCH & MANUFACTURING S.A., priority 2017, published 2022).
